In brackets after ≈: the same amount, converted by molar mass. Like-named read-outs stand apart in the source and are kept apart here.

Series [1] is described as follows: Autoxidation of rifamycins in phosphate buffer. In kind it is physicochemical. The settings on record: for spectral changes under autoxidizing conditions: phosphate buffer pH 7.3, trace metals, up to 24 h.
Series [2] deals with T1, tear lipocalin (Homo sapiens, UniProt P31025). The experiment in a line: Protection from oxidation of rifamycins by tear lipocalin. In kind it is physicochemical. Particulars: tear lipocalin 100 μM; for oxidation by K3Fe(CN)6 after initial protection with tear lipocalin: K3Fe(CN)6 90 μM added after 180 min; for duration of protection from autoxidation by tear lipocalin: drug 15 μM, pH 7.3.
T1 sequence (P31025 19-176): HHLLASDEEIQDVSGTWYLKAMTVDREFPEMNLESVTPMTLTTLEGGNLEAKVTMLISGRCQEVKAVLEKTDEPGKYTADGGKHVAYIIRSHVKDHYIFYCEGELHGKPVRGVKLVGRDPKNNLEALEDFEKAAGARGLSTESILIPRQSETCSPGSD

Series [3] has as its system Mycobacterium smegmatis strain mc^2155. Nature of the series: microbe, parasite or virus in culture. Particulars: for MIC: Mycolicibacterium smegmatis, MC^2155, 120 h; for resistance factor R (MICwt/MICmutant): mc^2155 versus RHS 234. It is filed as cell-based.
Series [4] has as its system Mycobacterium smegmatis strain RHS 234. It is filed as cell-based. The settings on record: Mycolicibacterium smegmatis, RHS234, 120 h.
Series [5] concerns Mycobacterium tuberculosis. Particulars: M. tuberculosis; cited from earlier work.
For series [6] the following is noted: in vivo; cited from earlier work.
The conditions of series [7]: in vivo; cited from earlier work. The source holds these as a separate data set.
The subject of another series is CYP3A4. Particulars: cited from earlier work.
The target of series [8] is T1, tear lipocalin. The experiment in a line: Rifamycin binding to tear lipocalin. The settings on record: increase in binding affinity to tear lipocalin.
For the next series, the system named is serum albumin. Particulars: cited from earlier work.
In a further series the test system is Staphylococcus aureus. Particulars: in mice; cited from earlier work.
For series [9], the target named is T1, tear lipocalin. Particulars: read-out: Kd for tear lipocalin; known dissociation constant; cited from earlier work.
The conditions of series [10]: monitored at 475 nm; cited from earlier work.

In the case of `CO[C@H]1/C=C/O[C@@]2(C)Oc3c(C)c(O)c4c(O)c(cc(O)c4c3C2=O)NC(=O)/C(C)=C\C=C\[C@H](C)[C@H](O)[C@@H](C)[C@@H](O)[C@@H](C)[C@H](OC(C)=O)[C@@H]1C` [Rifamycin SV], in series [1], the “spectral changes under autoxidizing conditions” value is “show spectral changes under autoxidizing conditions”. The fraction oxidized entry in series [1] (within 30 minutes) is on record as “less than 10%”. Further, the “oxidation by K3Fe(CN)6 after initial protection with tear lipocalin” value (shortened to “oxidation … with tear lipocalin”) at tear lipocalin [2] was “appeared better protected”. Moreover, the “duration of protection from autoxidation by tear lipocalin” value (“duration of protection from autoxidation” for short) on tear lipocalin [2] is recorded as “at least 3 h”. The MIC is < 1.38 µM in series [3], 0.69 µM (≈ 0.481 µg/mL) in series [4] and “.05 µg/mL” in series [5].

As for `CO[C@H]1/C=C/O[C@@]2(C)Oc3c(C)c(O)c4c(=O)c(c5oc6cc(N7CCN(CC(C)C)CC7)cc(O)c6nc-5c4c3C2=O)NC(=O)/C(C)=C\C=C\[C@H](C)[C@H](O)[C@@H](C)[C@@H](O)[C@@H](C)[C@H](OC(C)=O)[C@@H]1C` [Rifalazil], the evidence of hepatotoxicity result in [6] was “Notably lacking”. Moreover, in series [1], the “spectral changes under autoxidizing conditions” value was “did not show spectral changes under autoxidizing conditions”. For the same compound, the side effects entry in series [7] is “transient flue-symptoms, neutropenia, and thrombocytopenia”. In the series on CYP3A4, the “induction of CYP3A4” value was “Notably lacking”. In series [3], the “mycobactericidal activity relative to rifampin” value was 16 times. Besides, the MIC is 0.13 µM (≈ 0.122 µg/mL) in series [3] and < 0.06 µM in [4]. The “resistance factor R (MICwt/MICmutant)” value in series [3] was 2; in series [3] (listed as rifalazil), “≈ 2”. For the same compound, on tear lipocalin [8], the “free energy change of binding, rifalazil over rifampin” value was “about 2.4 kcal/mole”. The “bound to serum albumin” value in the series on serum albumin (in the circulation of animals) is 99%.

`CO[C@H]1/C=C/O[C@@]2(C)Oc3c(C)c(O)c4c(O)c(c5c(nc6cc(C)ccn65)c4c3C2=O)NC(=O)/C(C)=C\C=C\[C@H](C)[C@H](O)[C@@H](C)[C@@H](O)[C@@H](C)[C@H](OC(C)=O)[C@@H]1C` [Rifaximin]: in series [1], the “spectral changes under autoxidizing conditions” value is “did not show spectral changes under autoxidizing conditions”. Also, the figures for the MIC in series [3] and in series [4] were < 1.27 µM and 0.16 µM (≈ 0.126 µg/mL), respectively.

Take `CO[C@H]1/C=C/O[C@@]2(C)Oc3c(C)c(O)c4c(c3C2=O)C2=NC3(CCN(CC(C)C)CC3)NC2=C(NC(=O)/C(C)=C\C=C\[C@H](C)[C@H](O)[C@@H](C)[C@@H](O)[C@@H](C)[C@H](OC(C)=O)[C@@H]1C)C4=O` [Rifabutin]: the “spectral changes under autoxidizing conditions” value in series [1] is “did not show spectral changes under autoxidizing conditions”. For the same compound, the MIC in series [3] came out at 0.3 µM (≈ 0.254 µg/mL); in [4] it was 0.07 µM (≈ 0.0593 µg/mL).

Turning to `CO[C@H]1/C=C/O[C@@]2(C)Oc3c(C)c(O)c4c(O)c(c(/C=N/N5CCN(C6CCCC6)CC5)c(O)c4c3C2=O)NC(=O)/C(C)=C\C=C\[C@H](C)[C@H](O)[C@@H](C)[C@@H](O)[C@@H](C)[C@H](OC(C)=O)[C@@H]1C` [Rifapentine], the “spectral changes under autoxidizing conditions” value in series [1] is “show spectral changes under autoxidizing conditions”. Further, on tear lipocalin [2], the “oxidation … with tear lipocalin” value is “rapidly oxidized”. In addition, at tear lipocalin [2], the “duration of protection from autoxidation” value was “at least 3 h”. The figures for the MIC in series [3] and in [4] were < 2.28 µM and 0.14 µM (≈ 0.123 µg/mL), respectively.

In the case of `CO[C@H]1/C=C/O[C@@]2(C)Oc3c(C)c(O)c4c(c3C2=O)C(=O)C=C(NC(=O)/C(C)=C\C=C\[C@H](C)[C@H](O)[C@@H](C)[C@@H](O)[C@@H](C)[C@H](OC(C)=O)[C@@H]1C)C4=O` [Rifamycin S], the “ED50 compared with rifamycin SV” value in the series with Staphylococcus aureus is “higher ED50, than rifamycin SV”. For the same compound, in series [5], the MIC entry was “.05 µg/mL”.

By Kd is commonly meant the concentration at which binding is half-saturated. For the compound `CO[C@H]1/C=C/O[C@@]2(C)Oc3c(C)c(O)c4c(O)c(c(/C=N/N5CCN(C)CC5)c(O)c4c3C2=O)NC(=O)/C(C)=C\C=C\[C@H](C)[C@H](O)[C@@H](C)[C@@H](O)[C@@H](C)[C@H](OC(C)=O)[C@@H]1C` [Rifampin], the “spectral changes under autoxidizing conditions” value in series [1] is recorded as “show spectral changes under autoxidizing conditions”. The “oxidation … with tear lipocalin” value at tear lipocalin [2] was “rapidly oxidized”. In addition, on tear lipocalin [2], the “duration of protection from autoxidation” value is given as “at least 3 h”. The MIC was 2.43 µM (≈ 2 µg/mL) in series [3] and 0.3 µM (≈ 0.247 µg/mL) in [4]. At tear lipocalin [9], the Kd was 128 µM. Also, the “bound to serum albumin” value in the series on serum albumin is 80-85%. The “spectral changes of autoxidation, completeness” value in series [10] was “nearly complete after 24 h”.

These data come from paper PMC3992280 (Biochimica et biophysica acta, 2014).
